What all share (format): physicochemical
Series [1] in a line: Solubility of 6-perfluoro alkylamino-1,3,5-triazine-2,4-dithiol to various solvents. Set-up: key to Solubility, Toluene: X: did not solved; Δ: slightly solved (1 wt % or less); .largecircle.: sufficiently solved (1-10 wt %); .circleincircle.: excellently solved (10 wt % or more).
A short description of series [2]: Dissociation constants (pKa1, pKa2), yardstick for reactivity. The conditions noted are these: dissociation constant. The source says: (§1) In Table 5 below, there is shown the effectiveness of 6-perfluoro alkylamino-1,3,5-triazine-2,4-dithiol of examples of the present invention by comparing the dissociation constants, oxidation potential and critical micelle concentration with those of the comparative example.
(§2) With respect to the dissociation constants (pKa1, pKa2), which may function as a yardstick for reactivity, all the examples of the present invention have lower dissociation constants than the comparative example. Accordingly, it is understood that the triazine thiol derivative having a perfluoro group of the present invention has an excellent reactivity. With regard to the oxidation potential which functions as a yardstick for easiness of tribological polymerization and electrolytic polymerization, each example has a lower oxidation potential than the comparative example. This means that an oxidative polymerization of the triazine thiol derivative having a perfluoro group according to the present invention is easier than that of the comparative example. Further, the critical micelle concentration of every example is lower than that of the comparative example. This means that micelle formation is easier in the examples and thus, the triazine thiol derivative having a perfluoro group according to the present invention has an excellent surface activity.

Series [3] can be described thus: Oxidation potential, yardstick for easiness of tribological and electrolytic polymerization.
Description: as §1, §2

Series [4] can be described thus: Critical micelle concentration (surface activity).
Description: as §1, §2

Regarding `FC(F)(F)C(F)(F)C(F)(F)C(F)(F)C(F)(F)C(F)(F)C(F)(F)CNc1nc(S)nc(S)n1` [Example 11], in series [1], the “Solubility, MEK” value was “.largecircle. (sufficiently solved (1-10 wt %))”; the “Solubility, Acetic ether” value is on record as “Δ (slightly solved (1 wt % or less))”; the “Solubility, Ethanol” value is “.largecircle. (sufficiently solved (1-10 wt %))”; the “Solubility, Toluene” value is “Δ (slightly solved (1 wt % or less))”. The “Solubility, Water” value in series [1] is “.largecircle. (sufficiently solved (1-10 wt %))”. Besides, in series [2], the pKa1 was 8.1 and the pKa2 is 10.3. In series [3], this compound yielded an Oxidation potential of 0.62 V vs. Ag^+ /Ag. In series [4], the Critical micelle concentration came to 0.0021 mol/L.

For the compound `CCCCN(CC(F)(F)C(F)(F)C(F)(F)C(F)(F)C(F)(F)C(F)(F)C(F)(F)F)c1nc(S)nc(S)n1` [Example 12], in series [1], the “Solubility, MEK” value was “.circleincircle. (excellently solved (10 wt % or more))”; the “Solubility, Acetic ether” value was “.largecircle. (sufficiently solved (1-10 wt %))”; the “Solubility, Ethanol” value is listed as “.largecircle. (sufficiently solved (1-10 wt %))”; the “Solubility, Toluene” value is reported as “.largecircle. (sufficiently solved (1-10 wt %))”. The “Solubility, Water” value in series [1] is “.largecircle. (sufficiently solved (1-10 wt %))”. In series [2], the pKa1 worked out at 7.4 and the pKa2 is given as 10.4. In series [3], this compound registered an Oxidation potential of 0.46 V vs. Ag^+ /Ag. In addition, the Critical micelle concentration in series [4] was found to be 2.1e-05 mol/L.

With `FC(F)(F)C(F)(F)C(F)(F)C(F)(F)C(F)(F)C(F)(F)C(F)(F)CN(c1nc(S)nc(S)n1)C1CCCCC1` [Example 13], in series [1], the “Solubility, MEK” value was “.circleincircle. (excellently solved (10 wt % or more))”; the “Solubility, Acetic ether” value is “.largecircle. (sufficiently solved (1-10 wt %))”; the “Solubility, Ethanol” value is listed as “.largecircle. (sufficiently solved (1-10 wt %))”; the “Solubility, Toluene” value was “.largecircle. (sufficiently solved (1-10 wt %))”. Besides, the “Solubility, Water” value in series [1] was “.largecircle. (sufficiently solved (1-10 wt %))”. In series [2], this compound had a pKa1 of 6.2 and a pKa2 of 10.6. This compound also returned an Oxidation potential in series [3] of 0.78 V vs. Ag^+ /Ag. The Critical micelle concentration in series [4] was 5.6e-05 mol/L.

Regarding `FC(F)(F)C(F)(F)C(F)(F)C(F)(F)C(F)(F)C(F)(F)C(F)(F)c1ccc(Nc2nc(S)nc(S)n2)cc1` [Comparative example, reference compound], in series [1], the “Solubility, MEK” value is given as “Δ (slightly solved (1 wt % or less))”; the “Solubility, Acetic ether” value was “Δ (slightly solved (1 wt % or less))”; the “Solubility, Ethanol” value is given as “Δ (slightly solved (1 wt % or less))”; the “Solubility, Toluene” value was “X”. The “Solubility, Water” value in series [1] is recorded as “Δ (slightly solved (1 wt % or less))”. In series [2], this compound came in with a pKa1 of 8.3 and a pKa2 of 10.7. The Oxidation potential in series [3] is recorded as 0.90 V vs. Ag^+ /Ag. Further, the Critical micelle concentration in series [4] amounted to 0.022 mol/L.

For `CCCCN(CC(F)(F)C(F)(F)C(F)(F)C(F)(F)C(F)(F)C(F)(F)C(F)(F)C(F)(F)C(F)(F)C(F)(F)F)c1nc(S)nc(S)n1` [Example 14], in series [1], the “Solubility, MEK” value was “.circleincircle. (excellently solved (10 wt % or more))”; the “Solubility, Acetic ether” value is “.largecircle. (sufficiently solved (1-10 wt %))”; the “Solubility, Ethanol” value is recorded as “.largecircle. (sufficiently solved (1-10 wt %))”; the “Solubility, Toluene” value is “.largecircle. (sufficiently solved (1-10 wt %))”. For the same compound, the “Solubility, Water” value in series [1] is reported as “.largecircle. (sufficiently solved (1-10 wt %))”. Moreover, in series [2], the pKa1 was determined as 7.5 and the pKa2 worked out at 9.8. This compound gave an Oxidation potential in series [3] of 0.56 V vs. Ag^+ /Ag. In series [4], the Critical micelle concentration was 1.1e-05 mol/L.
